Paper PMC8467532, “DYRK1A Kinase Inhibitors Promote β-Cell Survival and Insulin Homeostasis” (Cells, 2021)

Tests used:
[1] = test system: isolated mouse islets; experiment: Insulin secretion assay in isolated mouse islets (ELISA, immunostaining); format: cell-based; parameters: key to insulin secretion (ELISA): ↑: moderate; ↑↑: most potent
Protocol: The Insulin ELISA (Ultra Sensitive) was used to quantify insulin levels in control and treated organoids and isolated islets from the mouse pancreas (Crystal Chem, Downers Grove, IL, USA). Islets were homogenized in lysis buffer. Obtained buffer lysates and medium samples (after GSIS) were analyzed for total protein level and subsequently processed following the manufacturer’s protocol.
Mice (male, initially 12 weeks old) were sacrificed by cervical vertebral dislocation. Before starting the incision, their bodies were sprayed with 70% EtOH. A hemostatic clamp was placed on both sides of the small intestine, leaving a small pocket to absorb the collagenase solution into the intestine. Next, 3 mL of cold collagenase solution was introduced into the pancreas through the bile duct. The pancreas was removed from the body and placed in a falcon tube containing 2 mL of collagenase solution. The tube was placed in a water bath at 37 °C. It was incubated for 13 min. At the end of this time, the falcon was shaken vigorously. The collagenase was inactivated with FBS. The sample was centrifuged for 30 s (300× g). This step was repeated 3 times. HBSS was then added to the sample and centrifuged two more times at the same speed as before. After the last centrifugation, HBSS was removed and Percoll (1.045 g/mL) (Sigma-Aldrich) was added. The Percoll solution was left to sediment for 5 min. After this time, the islets were collected from the bottom of the falcon. The step was repeated 3 times. Finally, islets were cultured in RPMI-1640 (Pan Biotech) supplemented with 2 mM L-glutamine (Gibco), 10% fetal bovine serum (FBS) and 1% penicillin/streptomycin and the culture medium was changed daily.
The presence of insulin, C-peptide, glucagon, Pdx-1 and Nkx6.1 was assessed in isolated mouse islets. Islets were fixed in PFA (3.8%) for 30 min, washed with PBS and 0.15% Triton X-100 was added for 1.5 h, then washed again with PBS and samples were transferred to 1% BSA + 0.05% Triton X-100 solution for 3 h. After this time, islets were incubated with primary antibody for 12 h at 4 °C. The secondary antibody was then added for 3 h. Next, the islets were incubated for 10 min with Hoechst33342. After incubation, at 37 °C, in the dark, the samples were washed twice with HBSS, the slide was transferred to a microscope table and the cells were visualized under a Zeiss LSM 880 confocal microscope (Carl Zeiss, Jena, Germany) with a 63× immersion objective. Images were analyzed by Zeiss ZEN Software.

[2] = test system: INS-1E cells; experiment: Cell cycle analysis (propidium iodide); format: cell-based, rat; conditions: 5 µM, 24 h
Protocol: To synchronize cell cultures, we used the serum starvation protocol. INS-1E cells were seeded in a 6-well plate in a growth medium with 20% FBS overnight. Then the cultures were rinsed by PBS and change to a serum-free medium. After serum starvation for 24 h, cells were released into the cell cycle by the addition of serum and 5 µM inhibitor solution for 24 h. The cells were then detached from the plate using trypsin. Then after washing, they were incubated with 50 µg/mL propidium iodide for 15 min in the dark. Cells were analyzed with the BDAccuri flow cytometer and calculated using FlowJo software.

[3] = test system: INS-1E and MIN6 cells; experiment: Ki67 proliferation analysis; format: cell-based, rat, mouse
[4] = test system: DYRK1A in MIN6 cell line; experiment: DYRK1A expression by flow cytometry and confocal imaging; format: cell-based, mouse
Protocol: The presence of insulin, glucagon, C-peptide, Ki67, and DYRK1A was assessed in MIN6 and INS-1E pancreatic cell lines. Before imaging, cells were seeded onto slides at a density of 1 × 10^5 cells and maintained at 37 °C in 95% atmospheric air and 5% CO2 in a humidified atmosphere for 24 h. After washing with fresh medium, cells were incubated with 5 µM inhibitor solution for 24 h. After this time, the solution was replaced with a culture medium for another 48 h. The cells were fixed. Then after washing and permeabilization, they were incubated with specific antibodies diluted in PBS. Next, the cells were incubated for 10 min with Hoechst33342 (Sigma-Aldrich). After incubation, at 37 °C, in the dark, the cells were washed twice with HBSS (Gibco), the slide was transferred to a microscope table, and the cells were visualized under a Zeiss LSM 880 confocal microscope (Carl Zeiss, Jena, Germany) with a 63× immersion objective. Images were analyzed by Zeiss ZEN Software.
The presence of insulin, glucagon, C-peptide, Ki67 and DYRK1A was assessed in MIN6 and INS-1E pancreatic cell lines. Before analysis, cells were seeded onto slides at a density of 1 × 10^5 cells and maintained at 37 °C in 95% atmospheric air and 5% CO2 in a humidified atmosphere for 24 h. After washing with fresh medium, cells were incubated with 5 µM inhibitor solution for 24 h. After this time, the solution was replaced with a culture medium for another 48 h. The cells were then detached from the plate using trypsin. The cells were fixed. Then after washing and permeabilization, they were incubated with specific antibodies diluted in PBS. Cells were analyzed with BDAccuri flow cytometer and calculated using FlowJo software (Ashland, Oregon-based FlowJo LLC, a subsidiary of Becton Dickinson).

[5] = high glucose, day 4 after treatment

SMILES: O=c1ccc2cnc3ccc(-c4cn[nH]c4)cc3c2n1-c1ccc(F)cc1C(F)(F)F [AC27, 1-(4-fluoro-2-(trifluoromethyl)phenyl)-9-(1H-pyrazol-4-yl)benzo[h][1, 6]naphthyridin-2-one]
- insulin secretion (ELISA) ([1]; Table 2, Isolated islets): ↑↑
- insulin secretion compared with untreated islets ([1]; after GSIS): significantly higher
- increase in insulin secretion compared with control islets [1, 5]: 60%
- insulin secretion, higher than with harmine [1, 5]: ca. 15%
- percentage of total insulin released ([1]; secretion normalized for total insulin content): higher
- number of cells in the G2/M phase [2]: increase
- induction of β-cell proliferation (Ki67 labeling of insulin-labeled cells) ([3]; 5 μM, vs untreated cells): most potent in inducing β-cell proliferation
- Ki67 labeling index in β-cells ([3]; combined with RepSox or LY364947): significant increase in the Ki67 labeling index
- Ki67 labeling index, difference to that without TGF-β inhibition ([3]; combined with TGF-β inhibitors): about 5%
- Ki67 labeling index (proliferation rate) ([3]; combined with TGF-β inhibitors (RepSox, LY364947), 5 μM each): > 12%
- DYRK1A (fluorescence-positive cells, flow cytometry) ([4]; MIN6, 24 h with inhibitor, control 74%): 33%
- DYRK1A signal in confocal imaging ([4]; MIN6, vs untreated control): reduced
